# Measured values reported in paper PMC9221546, “New Phenylglycinamide Derivatives with Hybrid Structure as Candidates for New Broad-Spectrum Anticonvulsants” (Cells, 2022).
# “Also recorded” adds a separate entry of the source. Where two headings read alike, the source gives them in different places.
# Key:
# [1] = tested on: MES-induced seizures in mice; assay: Maximal electroshock seizure (MES) test; format: in vivo; conditions: for protection in MES screening / responders at 100 mg/kg: 100 mg/kg i.p., 0.5 h; for protection in MES screening: four mice; for responders at 100 mg/kg / ED50: Mus musculus, ip; for responders at 100 mg/kg: read-out: MES screening: number of mice protected/number of mice tested (converted); for ED50: mice, pretreatment time 0.5 h, (95% confidence limits)
# Method in brief: (§1)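 Adult male Albino Swiss mice (22–26 g), compounds suspended in 1% aqueous Tween 80, single i.p. injection, tested 0.5 h post-dose. Screening at 100 mg/kg with four mice per group; ED50 from 3–4 groups of eight. PI = TD50 (chimney test) / ED50.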
# [2] = tested on: 6 Hz (32 mA) seizures in mice; assay: 6 Hz (32 mA) psychomotor seizure model; format: in vivo; conditions: Mus musculus, ip; for responders at 100 mg/kg: 100 mg/kg i.p., 0.5 h; for ED50: mice, pretreatment time 0.5 h, (95% confidence limits)
# Method in brief: as §1
# [3] = tested on: scPTZ-induced seizures in mice; assay: Subcutaneous pentylenetetrazole (scPTZ) seizure test; format: in vivo; conditions: 100 mg/kg i.p., 0.5 h; for protection in scPTZ screening: four mice
# Method in brief: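 Adult male Albino Swiss mice (22-26 g) received compounds suspended in 1% aqueous Tween 80, single i.p. injection at 10 mL/kg. ED50 from 3–4 dose groups of eight mice; protective index computed as TD50 (chimney or rotarod) divided by ED50.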
# [4] = tested on: mice; assay: Grip strength test (neuromuscular strength); format: in vivo; conditions: 50 mg/kg i.p., 0.5 h
# Method: In studies assessing the acute effect of compounds 53 and 60 on the ivPTZ seizure threshold and neuromuscular strength, compounds 53 and 60 was suspended in a 1% solution of Tween 80 and administered i.p., at a dose of 10 mL/kg body weight. Each experimental group consisted of 9–12 animals (ivPTZ seizure threshold test) or 9−10 animals (grip strength test). The timed ivPTZ test was employed to evaluate the acute effect of compounds 53 and 60 on the seizure thresholds for (1) the first myoclonic twitch, (2) generalized clonic seizure with loss of righting reflex, and (3) forelimb tonus. The experimental procedure of the timed ivPTZ test was described in detail elsewhere. The acute effect of compounds 53 and 60 on neuromuscular strength was quantified using the grip-strength apparatus (BIOSEB, Chaville, France) according to the method that is described elsewhere. The results are depicted in Figure 2 (ivPTZ seizure threshold test, see Section 3 Results and Discussion) and Figure 3 (grip strength test, see Section 3 Results and Discussion).
# Figure 3 Acute effects of 53 and 60 on the neuromuscular strength in mice. Compounds 53 and 60 were administered i.p. 0.5 h before the seizure test. Control animals received vehicle only. Each experimental group consisted of 9–10 animals. Each bar represents the mean + SEM grip strengths in millinewtons per gram of mouse body weight (mN/g).
# [5] = tested on: Na+ channel (site 2); assay: Na+ channel (site 2) radioligand binding; conditions: rat cerebral cortex
# [6] = target: T1, Cav1.2 (h) calcium ion channel (Homo sapiens, UniProt Q13936); assay: Cav1.2 (h) calcium ion channel cell-based antagonist calcium flux assay; conditions: HEK293, human recombinant HEK-293 cell, read-out: % Inhibition of control agonist response, Cav1.2 calcium flux
# T1 construct: Eurofins
# T1 sequence (Q13936 whole entry): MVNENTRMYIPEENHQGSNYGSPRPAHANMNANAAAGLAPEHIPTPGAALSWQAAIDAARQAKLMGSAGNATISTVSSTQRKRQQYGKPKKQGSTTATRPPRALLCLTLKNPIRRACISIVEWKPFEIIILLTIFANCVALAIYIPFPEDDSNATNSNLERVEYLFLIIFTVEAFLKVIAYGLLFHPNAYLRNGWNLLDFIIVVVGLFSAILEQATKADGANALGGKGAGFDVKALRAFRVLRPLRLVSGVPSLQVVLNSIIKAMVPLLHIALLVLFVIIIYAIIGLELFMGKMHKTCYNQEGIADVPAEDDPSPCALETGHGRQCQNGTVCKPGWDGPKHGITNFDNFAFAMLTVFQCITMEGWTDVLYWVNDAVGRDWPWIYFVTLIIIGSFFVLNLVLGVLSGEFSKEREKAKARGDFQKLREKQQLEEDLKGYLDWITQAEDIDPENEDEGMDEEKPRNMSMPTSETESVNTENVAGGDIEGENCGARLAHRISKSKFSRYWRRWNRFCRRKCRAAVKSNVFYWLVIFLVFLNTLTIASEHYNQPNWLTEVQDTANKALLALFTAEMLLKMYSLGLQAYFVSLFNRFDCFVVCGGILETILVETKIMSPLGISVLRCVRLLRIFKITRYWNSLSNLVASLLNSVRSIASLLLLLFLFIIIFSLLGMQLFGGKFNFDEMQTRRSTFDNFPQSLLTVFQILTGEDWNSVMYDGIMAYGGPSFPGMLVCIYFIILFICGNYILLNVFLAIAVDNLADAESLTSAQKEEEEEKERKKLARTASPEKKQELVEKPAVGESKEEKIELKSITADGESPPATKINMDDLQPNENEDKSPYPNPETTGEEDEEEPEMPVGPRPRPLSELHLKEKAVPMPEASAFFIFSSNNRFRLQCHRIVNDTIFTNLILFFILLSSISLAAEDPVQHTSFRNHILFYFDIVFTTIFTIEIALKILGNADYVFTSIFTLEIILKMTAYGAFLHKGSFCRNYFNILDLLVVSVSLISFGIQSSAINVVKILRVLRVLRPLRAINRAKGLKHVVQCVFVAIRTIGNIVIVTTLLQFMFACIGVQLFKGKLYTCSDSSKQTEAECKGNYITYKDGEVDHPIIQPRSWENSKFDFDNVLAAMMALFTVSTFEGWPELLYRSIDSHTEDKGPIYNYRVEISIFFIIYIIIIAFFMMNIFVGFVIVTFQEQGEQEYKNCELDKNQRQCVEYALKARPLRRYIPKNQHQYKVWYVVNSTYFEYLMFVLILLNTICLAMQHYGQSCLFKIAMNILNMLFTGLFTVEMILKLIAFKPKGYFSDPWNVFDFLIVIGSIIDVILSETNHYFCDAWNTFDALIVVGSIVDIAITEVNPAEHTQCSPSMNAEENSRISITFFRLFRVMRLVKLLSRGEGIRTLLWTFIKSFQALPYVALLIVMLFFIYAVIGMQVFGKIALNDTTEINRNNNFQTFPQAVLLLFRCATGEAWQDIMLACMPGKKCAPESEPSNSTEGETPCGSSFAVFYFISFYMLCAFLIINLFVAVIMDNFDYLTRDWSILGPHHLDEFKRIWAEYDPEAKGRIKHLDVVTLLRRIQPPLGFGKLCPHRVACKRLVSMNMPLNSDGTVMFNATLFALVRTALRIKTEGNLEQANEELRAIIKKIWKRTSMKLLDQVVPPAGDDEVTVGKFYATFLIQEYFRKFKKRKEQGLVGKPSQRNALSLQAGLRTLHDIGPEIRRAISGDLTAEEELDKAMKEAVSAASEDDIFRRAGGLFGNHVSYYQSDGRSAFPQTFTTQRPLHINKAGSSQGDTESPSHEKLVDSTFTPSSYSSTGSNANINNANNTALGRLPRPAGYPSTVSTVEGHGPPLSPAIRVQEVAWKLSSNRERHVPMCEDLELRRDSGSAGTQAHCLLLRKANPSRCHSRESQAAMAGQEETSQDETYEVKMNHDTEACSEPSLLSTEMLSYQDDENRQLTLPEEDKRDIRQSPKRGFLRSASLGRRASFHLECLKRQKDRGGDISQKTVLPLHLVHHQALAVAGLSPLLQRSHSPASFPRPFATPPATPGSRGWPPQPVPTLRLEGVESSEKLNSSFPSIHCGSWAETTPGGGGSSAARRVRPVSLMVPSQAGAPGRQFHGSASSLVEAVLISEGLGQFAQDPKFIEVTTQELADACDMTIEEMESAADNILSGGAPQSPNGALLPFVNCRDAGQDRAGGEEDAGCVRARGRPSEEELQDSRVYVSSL
# T1 sequence (Q08289 whole entry partner): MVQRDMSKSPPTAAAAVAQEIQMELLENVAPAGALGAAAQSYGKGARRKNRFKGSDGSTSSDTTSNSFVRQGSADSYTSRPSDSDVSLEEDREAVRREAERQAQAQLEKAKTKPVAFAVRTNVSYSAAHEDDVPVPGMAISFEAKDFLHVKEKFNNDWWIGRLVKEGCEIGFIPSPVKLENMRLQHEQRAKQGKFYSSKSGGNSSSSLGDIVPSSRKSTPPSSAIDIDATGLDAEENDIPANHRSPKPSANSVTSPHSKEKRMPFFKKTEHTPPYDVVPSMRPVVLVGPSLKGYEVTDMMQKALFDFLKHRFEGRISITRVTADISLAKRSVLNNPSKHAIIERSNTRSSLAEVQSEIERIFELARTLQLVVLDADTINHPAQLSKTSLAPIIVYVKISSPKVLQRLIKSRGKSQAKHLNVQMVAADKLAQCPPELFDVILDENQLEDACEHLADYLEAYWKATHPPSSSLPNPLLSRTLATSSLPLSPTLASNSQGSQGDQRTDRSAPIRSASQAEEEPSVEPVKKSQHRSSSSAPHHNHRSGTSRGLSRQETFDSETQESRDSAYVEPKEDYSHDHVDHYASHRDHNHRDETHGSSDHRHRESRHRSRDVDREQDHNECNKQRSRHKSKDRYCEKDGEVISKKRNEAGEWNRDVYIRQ
# T1 sequence (P54289 25-956 partner limits assumed): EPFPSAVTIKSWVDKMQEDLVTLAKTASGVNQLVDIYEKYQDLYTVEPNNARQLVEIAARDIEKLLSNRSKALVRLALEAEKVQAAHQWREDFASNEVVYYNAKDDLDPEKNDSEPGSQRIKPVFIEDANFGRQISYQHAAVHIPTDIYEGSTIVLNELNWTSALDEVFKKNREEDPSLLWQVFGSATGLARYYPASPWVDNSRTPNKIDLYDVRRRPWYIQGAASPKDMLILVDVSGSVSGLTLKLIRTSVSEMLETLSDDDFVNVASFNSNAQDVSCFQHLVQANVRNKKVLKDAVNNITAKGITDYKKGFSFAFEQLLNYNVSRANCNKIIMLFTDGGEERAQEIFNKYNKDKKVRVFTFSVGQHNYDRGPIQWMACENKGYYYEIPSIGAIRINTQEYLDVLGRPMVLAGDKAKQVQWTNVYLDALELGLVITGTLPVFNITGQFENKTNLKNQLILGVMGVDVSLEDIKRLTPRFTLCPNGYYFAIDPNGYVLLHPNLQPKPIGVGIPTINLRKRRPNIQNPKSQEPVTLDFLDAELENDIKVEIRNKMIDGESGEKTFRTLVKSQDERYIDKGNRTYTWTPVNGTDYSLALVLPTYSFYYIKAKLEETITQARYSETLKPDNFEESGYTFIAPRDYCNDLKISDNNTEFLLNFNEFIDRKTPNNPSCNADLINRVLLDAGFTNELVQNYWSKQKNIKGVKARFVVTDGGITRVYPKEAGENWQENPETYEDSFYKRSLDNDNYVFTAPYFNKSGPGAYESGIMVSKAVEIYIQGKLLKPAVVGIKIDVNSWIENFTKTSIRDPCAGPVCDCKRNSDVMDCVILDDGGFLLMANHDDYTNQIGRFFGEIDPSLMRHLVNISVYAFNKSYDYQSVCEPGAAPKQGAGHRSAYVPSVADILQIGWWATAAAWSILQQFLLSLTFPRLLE
# T1 sequence (P54289 957-1103 partner limits assumed): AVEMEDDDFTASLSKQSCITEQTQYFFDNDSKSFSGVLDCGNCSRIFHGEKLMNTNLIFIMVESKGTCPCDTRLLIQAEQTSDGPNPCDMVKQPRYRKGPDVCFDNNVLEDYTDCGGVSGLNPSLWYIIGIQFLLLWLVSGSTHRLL
# Method: Binding/functional studies were carried out commercially in Eurofins Laboratories (Poitiers, France) and Eurofins Panlabs Discovery Services Taiwan, Ltd. (New Taipei City, Taiwan) using testing procedures that were reported previously (for details see Table S2).
# Table S2. Radioligand binding and functional assays. […]
# TRPV1 (VR1) (h) (antagonist effect)
# Cav1.2 (L-type) (h) calcium ion channel cell-based antagonist calcium flux assay
# Assays were performed commercially in Eurofins Laboratories (Poitiers, France) or Eurofins Panlabs Discovery
# Services Taiwan, Ltd. (New Taipei City, Taiwan). […]
# [7] = tested on: hepatoma HepG2 cell line; assay: Hepatotoxicity, HepG2 viability (MTS); format: cell-based; conditions: 72 h treatment
# Method: Figure 7 The effect of 53, 60, and 62, cytostatic drug doxorubicin (DX) and the mitochondrial toxin CCCP on the hepatoma HepG2 cell line viability after 72 h of incubation at 37 °C, 5% CO2. The data were analyzed with one-way ANOVA, followed by Bonferroni’s Comparison Test (Graph Pad Prism 8.0.1 software, San Diego, CA, USA)): ** p < 0.01, **** p < 0.0001 vs. negative control (DMSO 1% in growth media).
# [8] = Metabolic stability in human liver microsomes (HLMs); conditions: for remaining at 2 h: human, human liver microsomes; for Metabolic Pathway: metabolites after 120 min incubation with HLMs
# [9] = four mice, read-out: protection in 6 Hz (32 mA) screening
# [10] = read-out: 6 Hz (32 mA) screening: number of mice protected/number of mice tested (converted)
SMILES,protection in MES screening [1] [%],responders at 100 mg/kg [1] [%],ED50 [1] [mg/kg],"responders at 100 mg/kg [2, 9] [%]","responders at 100 mg/kg [2, 10] [%]",ED50 [2] [mg/kg],scPTZ screening: number of mice protected/number of mice tested [3],protection in scPTZ screening [3] [%],effect on neuromuscular strength (grip strength) [4],"% Inhibition of Control Specific Binding, Na+ channel (site 2) ([5]; 10 µM)","% Inhibition of Control Specific Binding, Na+ channel (site 2) ([5]; 100 µM) [%]",inhibition at 10 µM [6] [%],effect on HepG2 cell viability (hepatotoxicity) [7],remaining at 2 h [8] [%],Metabolic Pathway [8]
"CC(=O)NC(C(=O)N1CCN(c2cccc(C(F)(F)F)c2)CC1)c1ccccc1 (centres unmarked) [Compound 53, N-(2-oxo-1-phenyl-2-(4-(3-(trifluoromethyl)phenyl)piperazin-1-yl)ethyl)acetamide]",75,75,89.7,100,100,29.9,1/4,25,did not significantly affect,17.4%,75.5,55,observed only at 100 µM,95.6,hydroxylation
"CC(=O)NC(C(=O)N1CCN(c2cccc(OC(F)(F)F)c2)CC1)c1ccccc1 (centres unmarked) [Compound 60, N-(2-oxo-1-phenyl-2-(4-(3-(trifluoromethoxy)phenyl)piperazin-1-yl)ethyl)acetamide]",75,75,73.6,100,100,24.6,1/4,25,did not significantly affect,37.0 (10) %,–,31,observed only at 100 µM,88.8,hydroxylation; also recorded: dehydrogenation
